# Source: ChEMBL document CHEMBL1141237, “Synthesis and activity of N-acyl azacyclic urea HIV-1 protease inhibitors with high potency against multiple drug resistant viral strains” (Bioorg Med Chem Lett, 2005)
# Experiments:
# [1] = tested on: Human immunodeficiency virus 1; test: Antiviral activity against HIV1 in the absence of human serum; format: functional, organism-based
# [2] = molecular target: Human immunodeficiency virus type 1 protease (Human immunodeficiency virus 1) (UniProt Q72874); test: Inhibitory activity against HIV1 protease at 0.5 uM
# [3] = tested on: Human immunodeficiency virus 1; test: Antiviral activity against HIV1 in the presence of 50% human serum; format: functional, organism-based
# [4] = tested on: Human immunodeficiency virus; test: Antiviral activity against indinavir resistant HIV IND-R mutant strain; format: functional, organism-based; details: Human immunodeficiency virus 1, IND-R
# [5] = tested on: Human immunodeficiency virus; test: Antiviral activity against Lopinavir resistant HIV A17 mutant strain; format: functional, organism-based; details: Human immunodeficiency virus 1, A17
# [6] = molecular target: Human immunodeficiency virus type 1 protease (Human immunodeficiency virus 1, UniProt Q72874); test: Inhibitory activity against HIV1 protease
# [7] = molecular target: Human immunodeficiency virus type 1 protease (Human immunodeficiency virus 1) (UniProt Q72874); test: Inhibitory activity against HIV1 protease at 1 uM
inhibition [7] [%],SMILES,EC50 [1] [nM],inhibition [2] [%],EC50 [3] [nM],EC50 [4] [nM],EC50 [5] [nM],IC50 [6] [nM]
–,COc1cccc(CCC(=O)N2C[C@@H](O)[C@@H](Cc3ccccc3)N(Cc3ccc(O)c(OC)c3)C(=O)N2Cc2ccc(O)c(OC)c2)c1,4,67,62,–,–,–
–,Nc1cccc(CN2C(=O)N(Cc3ccc4[nH]ncc4c3)N(C(=O)CCc3ccccc3)C[C@@H](O)[C@H]2Cc2ccccc2)c1,13,74,–,23,98,–
–,CC(C)CC(=O)N1C[C@@H](O)[C@@H](Cc2ccccc2)N(Cc2cccc(N)c2)C(=O)N1Cc1cccc(N)c1,37,66,–,–,2070,–
–,N/C(=N/O)c1cccc(CN2C(=O)N(Cc3ccc4[nH]ncc4c3)N(C(=O)CCc3ccccc3)C[C@@H](O)[C@H]2Cc2ccccc2)c1,74,90,–,58,84,–
–,COc1cc(CN2C(=O)N(Cc3ccc(O)c(OC)c3)N(C(=O)COc3ccccc3)C[C@@H](O)[C@H]2Cc2ccccc2)ccc1O,929,53,5150,–,–,–
–,COc1cc(CN2C(=O)N(Cc3ccc(O)c(OC)c3)N(C(=O)CCc3ccncc3)C[C@@H](O)[C@H]2Cc2ccccc2)ccc1O,212,–,546,–,–,1.2
–,COc1cc(CN2C(=O)N(Cc3ccc(O)c(OC)c3)N(C(=O)CCc3ccccc3)C[C@@H](O)[C@H]2Cc2ccccc2)ccc1O,4,55,28,49,102,–
–,COc1cc(CN2C(=O)N(Cc3ccc(O)c(OC)c3)N(C(=O)CCc3ccco3)C[C@@H](O)[C@H]2Cc2ccccc2)ccc1O,3,73,16,81,455,–
–,COc1cc(CN2C(=O)N(Cc3ccc(O)c(OC)c3)N(C(=O)CCCC3CCCO3)C[C@@H](O)[C@H]2Cc2ccccc2)ccc1O (some centres not stated),9,76,77,–,–,–
–,Cc1cccc(C)c1OCC(=O)N[C@@H](Cc1ccccc1)[C@@H](O)C[C@H](Cc1ccccc1)NC(=O)[C@H](C(C)C)N1CCCNC1=O [LOPINAVIR],16,–,67,385,1060,–
–,O=C(CCc1ccccc1)N1C[C@@H](O)[C@@H](Cc2ccccc2)N(Cc2ccc(O)cc2)C(=O)N1Cc1ccc(O)cc1,17,76,–,14,192,–
–,COc1cc(CN2C(=O)N(Cc3ccc(O)c(OC)c3)N(C(=O)CCCc3cccs3)C[C@@H](O)[C@H]2Cc2ccccc2)ccc1O,4,64,56,–,–,–
–,COc1cc(CN2C(=O)N(Cc3ccc(O)c(OC)c3)N(C(=O)CCCc3ccccc3)C[C@@H](O)[C@H]2Cc2ccccc2)ccc1O,5,75,27,–,–,–
–,Nc1[nH]nc2ccc(CN3C(=O)N(Cc4ccccc4)[C@H](Cc4ccccc4)[C@H](O)CN3C(=O)CCc3ccccc3)cc12,50,48,–,102,897,–
–,COc1cc(CN2C(=O)N(Cc3ccc(O)c(OC)c3)N(Cc3ccccc3)C[C@@H](O)[C@H]2Cc2ccccc2)ccc1O,4,81,29,–,–,–
–,O=C(CCc1ccccc1)N1C[C@@H](O)[C@@H](Cc2ccccc2)N(Cc2ccccc2)C(=O)N1Cc1ccc2[nH]ncc2c1,45,66,–,821,1070,–
–,COc1ccc(CCC(=O)N2C[C@@H](O)[C@@H](Cc3ccccc3)N(Cc3ccc(O)c(OC)c3)C(=O)N2Cc2ccc(O)c(OC)c2)cc1,6,67,48,88,133,–

inhibition [7] [%],SMILES,EC50 [1] [nM],inhibition [2] [%],EC50 [3] [nM],EC50 [4] [nM],EC50 [5] [nM],IC50 [6] [nM]
56,CC(C)CC(=O)N1C[C@@H](O)[C@@H](Cc2ccccc2)N(Cc2ccc(N)cc2)C(=O)N1Cc1ccc(N)cc1,150,–,–,–,–,–
–,COc1cc(CN2C(=O)N(Cc3ccc(N)c(OC)c3)N(C(=O)CCc3ccccc3)C[C@@H](O)[C@H]2Cc2ccccc2)ccc1N,53,88,–,504,464,–
–,COc1cc(CN2C(=O)N(Cc3ccc(O)c(OC)c3)N(C(=O)CCc3ccc(O)cc3)C[C@@H](O)[C@H]2Cc2ccccc2)ccc1O,61,73,165,–,–,–
–,CC(C)CC(=O)N1C[C@@H](O)[C@@H](Cc2ccccc2)N(Cc2ccc(O)cc2)C(=O)N1Cc1ccc(O)cc1,30,65,–,171,312,–
–,COc1cc(CN2C(=O)N(Cc3ccc(O)c(OC)c3)N(C(=O)CN3CCCC3)C[C@@H](O)[C@H]2Cc2ccccc2)ccc1O,572,–,490,–,–,7.9
–,COc1cc(CN2C(=O)N(Cc3ccc(O)c(OC)c3)N(C(=O)CCc3ccoc3)C[C@@H](O)[C@H]2Cc2ccccc2)ccc1O,9,68,18,227,562,–
–,COc1cc(CN2C(=O)N(Cc3ccc(O)c(OC)c3)N(C(=O)CCc3ccc(F)cc3)C[C@@H](O)[C@H]2Cc2ccccc2)ccc1O,4,67,28,164,189,–
–,COc1cc(CN2C(=O)N(Cc3ccc(O)c(OC)c3)N(C(=O)CCc3ccc4c(c3)OCO4)C[C@@H](O)[C@H]2Cc2ccccc2)ccc1O,4,73,56,54,65,–
–,COc1cc(CN2C(=O)N(Cc3ccc(O)c(OC)c3)N(C(=O)CN3CCNCC3)C[C@@H](O)[C@H]2Cc2ccccc2)ccc1O,1490,–,3220,–,–,6.1
–,COc1cc(CN2C(=O)N(Cc3ccc(O)c(OC)c3)N(C(=O)CC(C)C)C[C@@H](O)[C@H]2Cc2ccccc2)ccc1O,9,73,27,94,586,–
–,N/C(=N/O)c1cccc(CN2C(=O)N(Cc3ccccc3)N(C(=O)CCc3ccccc3)C[C@@H](O)[C@H]2Cc2ccccc2)c1,45,73,–,–,2020,–
–,COc1cc(CN2C(=O)N(Cc3ccc(O)c(OC)c3)N(C(=O)CCc3cccnc3)C[C@@H](O)[C@H]2Cc2ccccc2)ccc1O,54,58,353,–,–,–
–,COc1cc(CN2C(=O)N(Cc3ccc(O)c(OC)c3)N(C(=O)CCCCN3CCOCC3)C[C@@H](O)[C@H]2Cc2ccccc2)ccc1O,86,–,480,1040,> 10000,2.1
–,COc1cc(CN2C(=O)N(Cc3ccc(O)c(OC)c3)N(C(=O)CCCN3CCOCC3)C[C@@H](O)[C@H]2Cc2ccccc2)ccc1O,308,–,576,–,–,3.8
–,COc1cc(CN2C(=O)N(Cc3ccc(O)c(OC)c3)N(C(=O)CC3CCCC3)C[C@@H](O)[C@H]2Cc2ccccc2)ccc1O,3,66,60,132,367,–
–,CC(C)c1nc(CN(C)C(=O)N[C@H](C(=O)N[C@@H](Cc2ccccc2)C[C@H](O)[C@H](Cc2ccccc2)NC(=O)OCc2cncs2)C(C)C)cs1 [RITONAVIR],22,–,483,–,1240,–
–,COc1cc(CN2C(=O)N(Cc3ccc(O)c(OC)c3)N(C(=O)CCc3ccc(OC)c(OC)c3)C[C@@H](O)[C@H]2Cc2ccccc2)ccc1O,15,72,47,–,–,–
